From ChEMBL document CHEMBL1909046, “DrugMatrix in vitro pharmacology data”

How the values were obtained:
[1] = target: D(1A) dopamine receptor (Homo sapiens, UniProt P21728); test: DRUGMATRIX: Dopamine D1 radioligand binding (ligand: [3H] SCH-23390); format: cell membranes, CHO, Membrane; conditions: cho; Not Active = under 50% inhibition at 10 µM
[2] = DRUGMATRIX: Calcium Channel Type L, Benzothiazepine radioligand binding (ligand: [3H] Diltiazem); format: cell membranes, Rattus norvegicus, Wistar, Brain, Membrane; conditions: Not Active = under 50% inhibition at 10 µM
[3] = target: Voltage-gated inwardly rectifying potassium channel KCNH2 (Homo sapiens, UniProt Q12809); conditions: hek293; also: in other assays of this panel Not Active means under 50% inhibition at 10 µM
[4] = target: T1, Cysteinyl leukotriene receptor 1 (Homo sapiens, UniProt Q9Y271); format: cell membranes, Membrane; conditions: cho-k1; also: in other assays of this panel Not Active means under 50% inhibition at 10 µM
T1 sequence (Q9Y271 whole entry): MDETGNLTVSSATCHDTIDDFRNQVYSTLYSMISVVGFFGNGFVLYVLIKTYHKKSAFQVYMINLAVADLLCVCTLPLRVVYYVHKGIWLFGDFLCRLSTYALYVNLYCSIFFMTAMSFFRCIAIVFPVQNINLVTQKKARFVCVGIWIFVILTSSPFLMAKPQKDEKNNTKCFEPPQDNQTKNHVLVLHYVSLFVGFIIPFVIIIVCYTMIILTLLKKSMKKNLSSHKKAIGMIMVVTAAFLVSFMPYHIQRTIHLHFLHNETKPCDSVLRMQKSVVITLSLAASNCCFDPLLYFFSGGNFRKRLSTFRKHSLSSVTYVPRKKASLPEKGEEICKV

[5] = target: Aldo-keto reductase family 1 member B1 (Rattus norvegicus, UniProt P07943); format: tissue-based, Lens of camera-type eye;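 also: inhibition of aldose reductase enzyme activity, measured with DL-glyceraldehyde as the substrate; in other assays of this panel Not Active means under 50% inhibition at 10 µM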
[6] = target: T2, D(4) dopamine receptor (Homo sapiens, UniProt P21917); test: DRUGMATRIX: Dopamine D4.2 radioligand binding (ligand: [3H] Spiperone); format: cell membranes, CHO-K1, Membrane; conditions: Not Active = under 50% inhibition at 10 µM
T2 sequence (P21917 whole entry): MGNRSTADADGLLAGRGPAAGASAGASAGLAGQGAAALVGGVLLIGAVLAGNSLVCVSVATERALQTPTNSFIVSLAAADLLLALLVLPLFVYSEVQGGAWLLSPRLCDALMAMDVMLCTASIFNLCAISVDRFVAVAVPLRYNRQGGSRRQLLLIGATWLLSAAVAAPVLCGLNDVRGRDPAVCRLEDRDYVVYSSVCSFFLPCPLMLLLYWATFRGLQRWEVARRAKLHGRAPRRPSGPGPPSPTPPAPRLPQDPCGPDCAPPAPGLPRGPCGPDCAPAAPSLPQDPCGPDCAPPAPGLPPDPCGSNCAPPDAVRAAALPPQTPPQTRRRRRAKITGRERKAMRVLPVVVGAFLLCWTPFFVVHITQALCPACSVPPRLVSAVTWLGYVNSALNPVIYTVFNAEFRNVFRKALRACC

[7] = target: Cytochrome P450 2C19 (Homo sapiens, UniProt P33261); conditions: bti-tn-5b1-4; also: in other assays of this panel Not Active means under 50% inhibition at 10 µM
Cytochrome P450 2C19, sequence (P33261 whole entry): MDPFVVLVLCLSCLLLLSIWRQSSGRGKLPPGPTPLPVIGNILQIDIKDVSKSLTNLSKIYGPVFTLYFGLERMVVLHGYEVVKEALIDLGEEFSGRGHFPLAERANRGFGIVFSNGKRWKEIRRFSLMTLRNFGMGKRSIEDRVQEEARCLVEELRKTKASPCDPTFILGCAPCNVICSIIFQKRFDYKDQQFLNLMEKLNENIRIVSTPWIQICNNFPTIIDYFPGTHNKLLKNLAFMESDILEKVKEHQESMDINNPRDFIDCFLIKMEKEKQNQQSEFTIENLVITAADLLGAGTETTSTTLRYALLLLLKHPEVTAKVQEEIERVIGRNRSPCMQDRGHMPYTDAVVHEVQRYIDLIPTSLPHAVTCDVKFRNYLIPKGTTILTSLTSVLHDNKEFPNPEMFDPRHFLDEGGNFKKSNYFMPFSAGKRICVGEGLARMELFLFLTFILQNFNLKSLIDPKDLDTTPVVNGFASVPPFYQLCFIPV

D(1A) dopamine receptor, sequence (P21728 whole entry): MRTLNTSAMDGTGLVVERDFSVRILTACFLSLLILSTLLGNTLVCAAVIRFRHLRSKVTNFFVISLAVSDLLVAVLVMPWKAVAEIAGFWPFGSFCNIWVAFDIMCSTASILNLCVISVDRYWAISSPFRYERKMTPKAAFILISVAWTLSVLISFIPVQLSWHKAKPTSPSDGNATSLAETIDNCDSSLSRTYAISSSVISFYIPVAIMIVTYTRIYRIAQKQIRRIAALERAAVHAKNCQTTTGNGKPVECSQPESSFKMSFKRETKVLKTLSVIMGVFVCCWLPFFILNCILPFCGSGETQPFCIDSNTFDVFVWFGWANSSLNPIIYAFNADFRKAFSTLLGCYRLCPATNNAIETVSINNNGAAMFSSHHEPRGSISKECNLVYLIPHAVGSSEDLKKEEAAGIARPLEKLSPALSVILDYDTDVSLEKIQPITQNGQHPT
Voltage-gated inwardly rectifying potassium channel KCNH2, sequence (Q12809 whole entry): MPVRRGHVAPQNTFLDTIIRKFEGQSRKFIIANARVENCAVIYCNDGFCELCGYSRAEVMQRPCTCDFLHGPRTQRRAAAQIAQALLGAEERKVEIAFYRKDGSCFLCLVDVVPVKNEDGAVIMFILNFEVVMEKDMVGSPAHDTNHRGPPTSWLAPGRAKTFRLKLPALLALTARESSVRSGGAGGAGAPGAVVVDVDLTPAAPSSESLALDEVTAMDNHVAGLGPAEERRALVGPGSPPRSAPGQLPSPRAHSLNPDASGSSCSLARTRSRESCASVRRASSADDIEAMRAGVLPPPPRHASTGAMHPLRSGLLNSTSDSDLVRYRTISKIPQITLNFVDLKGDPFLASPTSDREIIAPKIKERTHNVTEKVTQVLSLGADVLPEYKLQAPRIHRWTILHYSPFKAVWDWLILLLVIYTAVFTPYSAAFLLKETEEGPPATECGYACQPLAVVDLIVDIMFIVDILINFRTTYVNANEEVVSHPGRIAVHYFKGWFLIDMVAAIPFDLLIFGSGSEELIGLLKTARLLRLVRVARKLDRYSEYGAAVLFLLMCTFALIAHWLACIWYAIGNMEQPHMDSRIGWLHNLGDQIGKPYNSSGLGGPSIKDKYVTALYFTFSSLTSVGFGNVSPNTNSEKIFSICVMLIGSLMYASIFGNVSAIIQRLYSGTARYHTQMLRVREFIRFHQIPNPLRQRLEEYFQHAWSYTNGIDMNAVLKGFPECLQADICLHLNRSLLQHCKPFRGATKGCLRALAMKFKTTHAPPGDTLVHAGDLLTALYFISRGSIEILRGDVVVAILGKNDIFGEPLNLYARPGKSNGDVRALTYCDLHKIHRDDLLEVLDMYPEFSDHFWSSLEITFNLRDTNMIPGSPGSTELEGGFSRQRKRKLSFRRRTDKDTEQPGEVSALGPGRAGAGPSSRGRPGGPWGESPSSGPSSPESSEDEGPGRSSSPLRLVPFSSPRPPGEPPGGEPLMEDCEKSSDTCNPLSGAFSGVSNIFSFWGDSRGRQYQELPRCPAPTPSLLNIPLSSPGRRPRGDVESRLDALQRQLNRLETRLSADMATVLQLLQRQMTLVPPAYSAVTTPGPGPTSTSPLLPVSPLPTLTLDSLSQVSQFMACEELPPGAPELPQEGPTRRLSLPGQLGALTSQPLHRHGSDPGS

SMILES | IC50 [1] | IC50 ([2]; read-out: IC50) [nM] | Ki ([2]; read-out: Ki) [nM] | IC50 [3] | Ki [3] | IC50 [4] | IC50 [5] | IC50 ([6]; cho-k1) | IC50 [7] | Ki [7] | IC50 ([6]; read-out: IC50) [µM] | Ki ([6]; read-out: Ki) [µM] | IC50 [2] | Ki [2]
Cc1c(C)c2c(c(C)c1O)CCC(C)(CN1CCN(c3cc(N4CCCC4)nc(N4CCCC4)n3)CC1)O2 (stereo not given) | Not Active | 1650 | 1470 | Not Active | Not Active | Not Active | Not Active | Not Active |  |  |  |  |  | 
COc1ccc(CCN(C)CCCC(C#N)(c2ccc(OC)c(OC)c2)C(C)C)cc1OC (stereo not given) | Not Active | 14 | 12 |  |  | Not Active | Not Active | Not Active | Not Active | Not Active |  |  |  | 
CN(C)CCOC(c1ccccc1)c1ccccc1 [DIPHENHYDRAMINE] |  |  |  |  |  | Not Active | Not Active | Not Active |  |  |  |  |  | 
Clc1ccc(COC(Cn2ccnc2)c2ccc(Cl)cc2Cl)cc1 (stereo not given) [ECONAZOLE] |  |  |  |  |  | Not Active | Not Active |  |  |  | 9.33 | 3.27 |  | 
CCN(CC)CCOc1ccc(/C(=C(/Cl)c2ccccc2)c2ccccc2)cc1 [ENCLOMIPHENE] |  |  |  | Not Active | Not Active | Not Active | Not Active | Not Active | Not Active | Not Active |  |  |  | 
Fc1ccc(C(c2ccc(F)cc2)N2CCN(C/C=C/c3ccccc3)CC2)cc1 [FLUNARIZINE] |  |  |  |  |  | Not Active | Not Active | Not Active | Not Active | Not Active |  |  |  | 
CNCCC(Oc1ccc(C(F)(F)F)cc1)c1ccccc1 (stereo not given) [FLUOXETINE] |  |  |  |  |  | Not Active | Not Active | Not Active | Not Active | Not Active |  |  |  | 
Cc1ccc(NC(=O)c2ccc(CN3CCN(C)CC3)cc2)cc1Nc1nccc(-c2cccnc2)n1 [IMATINIB] |  |  |  |  |  | Not Active | Not Active | Not Active | Not Active | Not Active |  |  |  | 
CCN(CC)CC(=O)Nc1c(C)cccc1C [LIDOCAINE] | Not Active |  |  |  |  | Not Active | Not Active | Not Active |  |  |  |  | Not Active | Not Active
CO[C@@H]1[C@@H](OC)[C@H](C)[C@@](O)(CC(=O)O)O[C@H]1[C@H](C)[C@H]1O[C@@]2(CC[C@@](C)([C@H]3CC[C@@](C)([C@@H]4O[C@@H]([C@H]5O[C@](C)(O)[C@H](C)C[C@@H]5C)C[C@@H]4O[C@@H]4C[C@H](OC)[C@@H](OC)[C@H](C)O4)O3)O2)C[C@H](O)[C@H]1C [MADURAMICIN ACID] |  |  |  | Not Active | Not Active | Not Active | Not Active | Not Active | Not Active | Not Active |  |  | Not Active | Not Active
C[C@H]1C[C@@H]2[C@H]([C@@H](O)C[C@@]3(C)[C@H]2CC[C@]3(O)C(=O)CO)[C@@]2(C)C=CC(=O)C=C12 [METHYLPREDNISOLONE] | Not Active |  |  | Not Active | Not Active | Not Active | Not Active | Not Active |  |  |  |  | Not Active | Not Active
CN[C@H]1CC[C@@H](c2ccc(Cl)c(Cl)c2)c2ccccc21 [SERTRALINE] |  |  |  |  |  | Not Active | Not Active | Not Active |  |  |  |  |  | 
COc1cc2nc(N3CCN(C(=O)C4CCCO4)CC3)nc(N)c2cc1OC (stereo not given) [TERAZOSIN] | Not Active |  |  |  |  | Not Active | Not Active | Not Active | Not Active | Not Active |  |  | Not Active | Not Active
CCCCNc1ccc(C(=O)OCCN(C)C)cc1 [TETRACAINE] | Not Active |  |  | Not Active | Not Active | Not Active | Not Active | Not Active |  |  |  |  | Not Active | Not Active
Clc1ccccc1CN1CCc2sccc2C1 [TICLOPIDINE] | Not Active |  |  | Not Active | Not Active | Not Active | Not Active | Not Active |  |  |  |  | Not Active | Not Active
